Test results reported in ChEMBL document CHEMBL1136279, “Synthesis and insulin-sensitizing activity of a novel kind of benzopyran derivative” (2003).

The compounds below were run on 3T3-L1 (assay: Effective concentration for enhancement of insulin-induced triglyceride accumulation in 3T3-L1 cells). Conditions: Mus musculus.
Type: functional
In the case of COC(=O)c1cc2ccc(OCCn3ccc4ccccc43)cc2oc1=O, the EC30 was 0.344 µM.
For Cc1oc(-c2ccccc2)nc1CCOc1ccc2cc(C(=O)OC(C)(C)C)c(=O)oc2c1, the EC30 was 0.382 µM.
CN(CCOc1ccc(CC2SC(=O)NC2=O)cc1)c1ccccn1 (stereo not drawn) [ROSIGLITAZONE] showed an EC30 of 0.0203 µM.
Work on COC(=O)C1Cc2ccc(OCCc3nc(-c4ccccc4)oc3C)cc2OC1=O (stereo not drawn) yielded an EC30 of 0.0156 µM.
With COC(=O)C1Cc2ccc(OCCN(C)c3nc4ccccc4o3)cc2OC1=O (stereo not drawn) the EC30 was 0.219 µM.
COC(=O)c1cc2ccc(OCCc3nc(-c4ccccc4)oc3C)cc2oc1=O was tested, and the EC30 was 0.008 µM.
With Cc1oc(-c2ccccc2)nc1CCOc1ccc2c(c1)OC(=O)C(C(=O)O)C2 (stereo not drawn) the EC30 was 0.11 µM.
Cc1oc(-c2ccccc2)nc1CCOc1ccc2cc(C(=O)O)c(=O)oc2c1 was tested, and the EC30 was 0.3 µM.

The compounds below were run on 3T3-L1 (assay: Percentage of rosiglitazone response for insulin-sensitizing activity at 1 uM concentration in 3T3-L1 cells). Conditions: not given.
Type: functional, Mus musculus
O=C(O)c1cc2ccc(OCCn3ccc4ccccc43)cc2oc1=O showed an Insulin-sensitizing activity of 25%.
In the case of COC(=O)c1cc2ccc(OCCn3ccc4ccccc43)cc2oc1=O, the Insulin-sensitizing activity was 108%.
With CCc1ccc(CCOc2ccc3cc(C(=O)OC)c(=O)oc3c2)nc1 the Insulin-sensitizing activity was 46%.
With COC(=O)C1Cc2cc(OCCc3nc(-c4ccccc4)oc3C)ccc2OC1=O (stereo not drawn) the Insulin-sensitizing activity was 28%.
COC(=O)c1cc2cc(OCCc3nc(-c4ccccc4)oc3C)ccc2oc1=O was tested, and the Insulin-sensitizing activity was 33%.
Compound Cc1oc(-c2ccccc2)nc1CCOc1ccc2cc(C(=O)OC(C)(C)C)c(=O)oc2c1 has an Insulin-sensitizing activity of 89%.
Work on CN(CCOc1ccc(CC2SC(=O)NC2=O)cc1)c1ccccn1 (stereo not drawn) [ROSIGLITAZONE] yielded an Insulin-sensitizing activity of 100%.
Compound COC(=O)c1cc2ccc(OCCN(C)C(=O)OC(C)(C)C)cc2oc1=O has an Insulin-sensitizing activity of 115%.
CCc1ccc(CCOc2ccc3c(c2)OC(=O)C(C(=O)OC)C3)nc1 (stereo not drawn) showed an Insulin-sensitizing activity of 27%.
Compound COC(=O)C1Cc2ccc(OCCc3nc(-c4ccccc4)oc3C)cc2OC1=O (stereo not drawn) has an Insulin-sensitizing activity of 132%.
In the case of COC(=O)C1Cc2ccc(OCCN(C)c3nc4ccccc4o3)cc2OC1=O (stereo not drawn), the Insulin-sensitizing activity was 108%.
Work on COC(=O)c1cc2ccc(OCCc3nc(-c4ccccc4)oc3C)cc2oc1=O yielded an Insulin-sensitizing activity of 129%.
Compound Cc1oc(-c2ccccc2)nc1CCOc1ccc2c(c1)OC(=O)C(C(=O)O)C2 (stereo not drawn) has an Insulin-sensitizing activity of 98%.
Cc1oc(-c2ccccc2)nc1CCOc1ccc2cc(C(=O)O)c(=O)oc2c1 gave an Insulin-sensitizing activity of 103%.
Work on CCc1ccc(CCOc2ccc3cc(C(=O)O)c(=O)oc3c2)nc1 yielded an Insulin-sensitizing activity of 15%.
